One test addresses T1, MMP-14 (Homo sapiens, UniProt P50281).
T1 construct: The catalytic domain enzyme was expressed in E. coli inclusion bodies, solubilized in urea; made in house
Description: In vitro MMP inhibition, IC50 determination (fluorogenic substrate I). Type of test: biochemical. Particulars: read-out: MMP-14 (IC-50).

The target of another test is T2, MMP-9 (Homo sapiens, UniProt P14780).
T2 construct: made in house; host or cells: MMP-9-transfected HT1080 cells (spent media)
Described as above. Type of test: biochemical. Particulars: read-out: MMP-9 (IC-50).

Like-named read-outs stand apart in the source and are kept apart here.

T2 sequence (P14780 107-707 limits assumed): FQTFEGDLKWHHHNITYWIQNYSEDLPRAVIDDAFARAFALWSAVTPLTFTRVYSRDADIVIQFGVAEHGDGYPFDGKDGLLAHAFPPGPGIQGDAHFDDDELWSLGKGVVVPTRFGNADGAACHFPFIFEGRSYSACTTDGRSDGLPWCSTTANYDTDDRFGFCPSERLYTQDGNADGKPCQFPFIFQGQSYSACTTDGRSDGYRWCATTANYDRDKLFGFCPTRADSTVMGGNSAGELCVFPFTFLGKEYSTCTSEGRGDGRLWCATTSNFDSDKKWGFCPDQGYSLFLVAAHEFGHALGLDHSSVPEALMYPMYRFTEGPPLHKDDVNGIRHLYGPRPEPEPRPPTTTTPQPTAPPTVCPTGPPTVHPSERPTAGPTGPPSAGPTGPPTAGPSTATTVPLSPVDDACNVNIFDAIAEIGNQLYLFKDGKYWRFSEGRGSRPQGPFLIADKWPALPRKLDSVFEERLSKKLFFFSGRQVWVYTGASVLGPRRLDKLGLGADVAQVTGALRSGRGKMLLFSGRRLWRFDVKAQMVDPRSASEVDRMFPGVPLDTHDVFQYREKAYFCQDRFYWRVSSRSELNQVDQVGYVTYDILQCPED

Turning to `COCCN1CCC(C(=O)NO)(S(=O)(=O)N2CCN(c3ccc(C#N)cc3)CC2)CC1` [Example 186], the IC50 on MMP-14 (value in parenthesis) stood at 7480 nM; at MMP-9 (value in parenthesis), 55.8 nM.

With `CCC(CC)Cc1ccc(N2CCN(S(=O)(=O)C3(C(=O)NO)CCN(CCOC)CC3)CC2)cc1` [Example 188], the IC50 on MMP-14 (value in parenthesis) is over 10000 nM; at MMP-9 (value in parenthesis), 33.7 nM.

As to `CCOCCCc1ccc(N2CCN(S(=O)(=O)C3(C(=O)NO)CCN(CCOC)CC3)CC2)cc1` [Example 179], the IC50 came to 3620 nM at MMP-14 (value in parenthesis) and 3.39 nM at MMP-9 (value in parenthesis).

With `COCCN1CCC(C(=O)NO)(S(=O)(=O)N2CCN(c3ccc(CC4CCCCC4)cc3)CC2)CC1` [Example 181], the values for the IC50 at MMP-14 (value in parenthesis) and at MMP-9 (value in parenthesis) were over 10000 nM and 45.6 nM, respectively.

`CCOc1ccc(N2CCN(S(=O)(=O)C3(C(=O)NO)CCN(CCOC)CC3)CC2)cc1F` [Example 184]: the IC50 on MMP-14 (value in parenthesis) came to 2400 nM; at MMP-9 (value in parenthesis), 2.79 nM.

Consider `COCCN1CCC(C(=O)NO)(S(=O)(=O)N2CCN(c3ccc(CCC4CCCC4)cc3)CC2)CC1` [Example 182], for which the results for the IC50 on MMP-14 (value in parenthesis) and on MMP-9 (value in parenthesis) were 7850 nM and 1.72 nM, respectively.

For the compound `CCc1cnc(N2CCN(S(=O)(=O)C3(C(=O)NO)CCN(CCOC)CC3)CC2)nc1` [Example 187], the IC50 was over 10000 nM on MMP-14 (value in parenthesis) and 155 nM at MMP-9 (value in parenthesis).

Regarding `CCCOc1ccc(N2CCN(S(=O)(=O)C3(C(=O)NO)CCN(CCOC)CC3)CC2)cc1F` [Example 185], the figures for the IC50 at MMP-14 (value in parenthesis) and on MMP-9 (value in parenthesis) were over 10000 nM and 1.19 nM, respectively.

Consider `COCCCc1ccc(N2CCN(S(=O)(=O)C3(C(=O)NO)CCN(CCOC)CC3)CC2)cc1` [Example 180], for which the IC50 is 5560 nM at MMP-14 (value in parenthesis) and 2.25 nM at MMP-9 (value in parenthesis).

With `COCCN1CCC(C(=O)NO)(S(=O)(=O)N2CCN(c3ccc(CC4CCC4)cc3)CC2)CC1` [Example 183], the values for the IC50 at MMP-14 (value in parenthesis) and on MMP-9 (value in parenthesis) were 2040 nM and 1.67 nM, respectively.

Take `CCCCOc1ccc(N2CCN(S(=O)(=O)C3(C(=O)NO)CCN(C(=O)CCC)CC3)CC2)cc1` [Example 290]: the results for the IC50 on MMP-14 (value in parentheses) and on MMP-9 (value in parentheses) were 3800 nM and 1.42 nM, respectively.

Values taken from patent US20050209278A1, “Piperidinyl- and piperazinyl-sulfonylmethyl hydroxamic acids and their use as protease inhibitors” (priority 2002, published 2005).
